Consider 6 molecules from patent publication US20180118682A1, “PHARMACEUTICAL COMPOSITION CONTAINING A TRYPTOPHAN DERIVATIVE” (Ramot at Tel-Aviv University Ltd., priority 2010, published 2018).

Converted amounts (≈) assume the structure as drawn. Where only a bound is given, the exact number is not on record here.

Series [1] deals with microorganisms (e.g. bacteria and fungi). Description: microbial preservation of ophthalmic formulations according to European and US pharmacopeia standards. Type of series: cell-based. Conditions: European standards (Pharmacopeia 7.0) and US-Pharmacopeia. An excerpt:
It can be particularly difficult to preserve formulations against microorganisms (e.g. bacteria and fungi), if the formulation contains a cyclodextrin derivative.
From different tests it can be seen that a sufficient microbial preservation of ophthalmic formulations is not possible with benzalkonium chloride, cetrimide and chlorhexidine according to the European standards (Pharmacopeia 7.0) and US standards (US-Pharmacopeia).

Series [2] in a line: compatibility with ophthalmic excipients. Type of series: physicochemical. The note with it: aqueous solutions at pH 5.5. The source says: In the further series of tests, the compatibility of the compound (A) with other typical ophthalmic excipients was investigated.
Series [3] is described as follows: octanol/water partition coefficient log P, pH-metric method (OECD draft guideline 122). Format: physicochemical. The note with it: titrated pH 1.9 to 10.9, 1.3 to 1.9 mM, various octanol/water ratios. The source says:
The octanol/water partition coefficient log P of the compounds of the invention can be determined by accepted standard methods known to the person skilled in the art, such as OECD (1995), Test No. 107: Partition Coefficient (n-octanol/water): Shake Flask Method, OECD Guidelines for the Testing of Chemicals, Section 1: Physical-Chemical properties, OECD Publishing. doi: 10.1787/9789264069626-en.
The log P value may be determined according to the draft OECD guideline OECD (2000), OECD Draft guideline for the Testing of Chemicals: 122 Partition Coefficient (n-Octanol/Water): pH-Metric Method for Ionisable Substances. For Example, log P of compound (A) was investigated using OECD (2000) OECD Draft guideline for the Testing of Chemicals: 122. The sample was titrated in two triple titrations from pH 1.9 to pH 10.9 at concentrations of 1.3 to 1.9 mM in various ratios of octanol/water.

The nature of series [4]: aqueous solubility of compound (A) as a function of pH (UV-spectroscopy). The note with it: for solubility: aqueous media, aqueous buffer, R-enantiomer used. Type of series: physicochemical. How it is done: At acidic conditions, the solubility of the compound (A) is higher.
At alkaline pH-values, the solubility of the compound (A) is also better.
The solubility of the R-enantiomer of compound (A) was determined as a function of the pH-value by using UV-spectroscopy to quantify the concentration of the compound in a series of aqueous media.

Series [5] is described as follows: equilibrium solubility in water at 20 °C with varying cyclodextrin content. Conditions: thermodynamic from solid. Type of series: physicochemical. The procedure:
For testing the influence of the cyclodextrin content in ophthalmic formulations, the solubility of Compound (A) was tested.

Series [6] in a line: equilibrium solubility in citrate buffer saline pH6 with cyclodextrins (shake flask method). Type of series: physicochemical. Conditions: citrate buffer saline with cyclodextrin, pH 6, aqueous with cosolvent or surfactant or cyclodextrin, thermodynamic from solid, read-out: Solubility of compound (A). How it is done: The equilibrium solubility of compound (A) was tested in a citrate buffer saline at pH6 in presence of different cyclodextrins by the shake flask method.

The test system of series [7] is retinal ganglion cell (RGC) apoptosis. Description: rat glaucoma model (chronic ophthalmic hypertension), RGC apoptosis. Format: in vivo, male Dark Aguti rat. The note with it: low doses, intravitreal; compared to vehicle; 3 and 6 weeks after OHT induction. The procedure:
In a male Dark Aguti rat model, glaucoma is produced by injection of hypertonic saline into episcleral veins of one eye to induce increased ophthalmic pressure (chronic ophthalmic hypertension), while the opposite eye serves as a control. In treatment groups, various doses of compound (A) of the instant invention are injected intravitreally (in […] volume) at the time of glaucoma induction and in some groups the administration continues for following 7 days to see whether such extended treatment results in increased efficacy.
The extent of retinal ganglion cell (RGC) apoptosis at 3 weeks and 6 weeks after chronic ophthalmic hypertension (OHT) induction is assessed in each animal by dynamic confocal scanning laser ophthalmoscopy and fluorescent-labeled Annexin V.
Animals are sacrificed after 3 and 6 weeks and their eyes are enucleated and fixed in 4% para-formaldehyde overnight. Afterwards, retinas are separated for assessing apoptosis related changes, for example visualized with FITC Annexin V kit (BD Biosciences, Franklin Laker (USA).

The test system of another series is Candida albicans. Nature of the series: preservation of ophthalmic formulation against Candida albicans. Type of series: cell-based. An excerpt: (§1) For testing of the long term preservation of the ophthalmic formulations with metal-containing preservatives, the pharmaceutical compositions VI of example 4 was modified by adding thiomersal in a concentration of 0.01% by weight in the aqueous formulation.

In another series the test system is Staphylococcus aureus. Nature of the series: preservation of ophthalmic formulation against Staphylococcus aureus. Type of series: cell-based.
From the text: as §1

Another series relates to Pseudomonas aeruginosa. Nature of the series: preservation of ophthalmic formulation against Pseudomonas aeruginosa. Format: cell-based.
From the text: as §1

For the next series, the system named is Aspergillus niger. Nature of the series: preservation of ophthalmic formulation against Aspergillus niger. Format: cell-based.
From the text: as §1

Where [8] appears, read: 0.001 to 0.01% by weight in the aqueous formulation.
Setting [9] is: composition VI with thiomersal 0.01% by weight, after 28 days.

For `[H]/N=C(\N/C(=N/[H])NCCCCCCNC(=N)NC(=N)Nc1ccc(Cl)cc1)Nc1ccc(Cl)cc1` [chlorhexidine], the “sufficient microbial preservation of ophthalmic formulations” value (from here on “sufficient microbial preservation”) in series [1] is given as “not possible”.

As to `CC(C)(NC(=O)C(N)Cc1c[nH]c2ccccc12)C(=O)O` (stereo not drawn) [compound (A), 2-[2-Amino-3-(1H-indol-3-yl)-propionylamino]-2-methyl-propionic acid], the “compatibility with further components (F) (hypromellose, carbomer, Gellan gum, preservatives)” value in series [2] is “no incompatibilities”. The logP (as a rule, the decadic logarithm of the partition coefficient of the neutral form, usually between octanol and water) in series [3] is under -1. In addition, the solubility (as a rule, the dissolved amount per volume that the medium holds) in series [4] (pH 4.6) is about 14 mg/mL (≈ 48.4 mM); in series [4] (pH 6) it was about 10 mg/mL (≈ 34.6 mM); in series [4] (pH 7), about 10 mg/mL (≈ 34.6 mM); in series [4] (pH 7.2) it was about 14 mg/mL (≈ 48.4 mM); in series [6] (100 mg/ml ACD (α-Cyclodextrin, Fluka)), 12.7 mg/mL (≈ 43.9 mM); in series [6] (110 mg/ml HPBCD (Kleptose HPB, Roquette)), 27.9 mg/mL (≈ 96.4 mM). Also, the solubility in series [6] (110 mg/ml HPGCD (Cavasol W8 HP Pharma, ISP)) was determined as 16.2 mg/mL (≈ 56 mM); in series [6] (110 mg/ml MBCD (Kleptose Crysmeb, Roquette)) it was 28.7 mg/mL (≈ 99.2 mM). Besides, the “solubility (in words)” value is “higher” in series [4] (at acidic conditions), “better” in [4] (at alkaline pH-values) and “particularly low” in [4] (from pH 4.5 to 7). In addition, the thermodynamic solubility (as a rule, solubility found after equilibrating the solid with the medium) stood at 11.6 mg/mL (≈ 40.1 mM) in [5] (water without cyclodextrin); 20.2 mg/mL in series [5] (water with cyclodextrin (HPBCD), aqueous with cosolvent or surfactant or cyclodextrin, water containing 65 mg/ml cyclodextrin (HPBCD)); 41.2 mg/mL in series [5] (water with cyclodextrin, aqueous with cosolvent or surfactant or cyclodextrin, water containing 165 mg/ml cyclodextrin). In addition, the RGC apoptosis result in [7] is “strong decrease”.

For the molecule `C/C=C/C=C/C(=O)O` [sorbic acid], the “preservation against Candida albicans” value in the series on Candida albicans (0.3% by weight instead of thiomersal in composition VI, after 14 days) is listed as “insufficient preservation”.

As for `C[CH2][Hg][S]c1ccccc1C(=O)[O-].[Na+]` [thiomersal], the “activity meeting the compendia requirements” value in the series with Candida albicans, in the series on Staphylococcus aureus, in the series with Pseudomonas aeruginosa and in the series with Aspergillus niger was “sufficient activity” throughout. Also, the duration of preservation with Candida albicans (setting [8]), in the series on Staphylococcus aureus (setting [8]), in the series with Pseudomonas aeruginosa (setting [8]) and with Aspergillus niger (setting [8]) was at least 28 days each time. Besides, the reduction of organism in the series on Candida albicans (setting [9]), with Staphylococcus aureus (setting [9]), with Pseudomonas aeruginosa (setting [9]) and in the series on Aspergillus niger (setting [9]) was at least 5 log each time.

In the case of benzalkonium chloride, the “sufficient microbial preservation” value in [1] is recorded as “not possible”.

For cetrimide, the “sufficient microbial preservation” value in series [1] is reported as “not possible”.
